Measurements taken from PMC12391994, “Synthesis of a fac-Tricarbonylrhenium(I) Complex with Pyrithione, Its Physicochemical Characterization, and Assessment of Biological Effects” (ACS Omega, 2025).

Assays:
[1] = Stability of complex 4 in DMSO followed by 1H NMR; format: physicochemical
Method: A Bruker Avance III HD Ascend 500 Plus instrument (Billerica, MA) was used for solution NMR studies. Spectra were recorded with a WATERGATE water suppression pulse scheme in the presence of 10% (v/v) D2O in most cases. DSS internal standard was added to samples to obtain reference peaks.

[2] = target: T1, human serum albumin (HSA) (Homo sapiens, UniProt P02768); assay: Membrane ultrafiltration with HSA; format: binding; settings: 1:2 protein-to-complex ratio (25 μM HSA, 50 μM complex), pH 7.4
T1 construct: purchased Sigma-Aldrich/Merck A8763
T1 sequence (P02768 25-609): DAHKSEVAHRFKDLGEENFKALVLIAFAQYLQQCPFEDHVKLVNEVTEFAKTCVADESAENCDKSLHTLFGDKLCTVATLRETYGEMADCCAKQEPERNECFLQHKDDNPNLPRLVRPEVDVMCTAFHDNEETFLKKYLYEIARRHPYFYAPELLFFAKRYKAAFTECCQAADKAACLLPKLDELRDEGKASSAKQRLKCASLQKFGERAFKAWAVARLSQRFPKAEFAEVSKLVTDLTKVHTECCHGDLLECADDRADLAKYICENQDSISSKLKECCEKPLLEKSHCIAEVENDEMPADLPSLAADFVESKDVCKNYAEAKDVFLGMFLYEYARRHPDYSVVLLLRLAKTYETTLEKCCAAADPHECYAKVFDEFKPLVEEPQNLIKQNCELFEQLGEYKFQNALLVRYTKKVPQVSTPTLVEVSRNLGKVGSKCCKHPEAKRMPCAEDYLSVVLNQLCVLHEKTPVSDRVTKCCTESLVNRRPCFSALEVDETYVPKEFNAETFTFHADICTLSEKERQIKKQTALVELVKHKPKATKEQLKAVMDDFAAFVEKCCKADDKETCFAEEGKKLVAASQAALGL
Method: To characterize the binding strength of the complex to HSA, the UV–vis spectrum of the complex was recorded in the presence of different amounts of the protein (Figure ). The gradual spectral changes leveled off at about 0.5 equiv of the protein, indicating at least two binding sites. However, from these spectral changes, no formation constants could be calculated due to the overlapping processes.
Milli-pore, Amicon Ultra-0.5 membrane filters (10 kDa) were used to separate samples containing 25 μM HSA and 50 μM complex (1:2 biomolecule-to-complex ratio) into low and high molecular mass (LMM and HMM) fractions as described in our former work. UV–vis spectrophotometry was used to determine the concentration of the nonbound compounds in the LMM fractions by comparing to a reference sample without the protein.

Colo320 cells = assay: MTT cytotoxicity assay, Colo320; format: cell-based, human; settings: 72 h incubation
Method: Its cytotoxicity was determined in the human HeLa cervical cancer cell line, the drug-sensitive Colo205 and its resistant counterpart, the ABCB1 expressing Colo320 colon adenocarcinoma cancer cell lines, using the colorimetric 3-(4,5-dimethylthiazol-2-yl)-2,5-diphenyltetrazolium bromide (MTT) test. To investigate the selectivity toward cancer cells, the noncancerous fibroblast CCD-19Lu cell line was included.
Drug-sensitive Colo205 (ATCC-CCL-222) and ABCB1 (MDR1)-LRP expressing and doxorubicin-resistant Colo320/MDR-LRP (ATCC-CCL-220.1) human colonic adenocarcinoma cell lines were purchased from LGC Promochem (Teddington, U.K.). The cells were cultured in RPMI 1640 medium supplemented with 10% heat-inactivated fetal bovine serum, 2 mM L-glutamine, 1 mM Na-pyruvate, and 10 mM HEPES.
The tested compound was dissolved in DMSO to prepare a 5 mM stock solution, which was diluted in complete culture medium, to study the effect of compounds on cell growth of human colonic adenocarcinoma cell lines. Doxorubicin was used as the positive control. The cells were treated with a trypsin-versene (EDTA) solution. […] Cell growth was determined by measuring the optical density (OD) at 540/630 nm with a Multiscan EX ELISA reader (Thermo Labsystems, Cheshire, WA). […]

cathepsin L = target: T2, cathepsin L (Homo sapiens, UniProt P07711); assay: Relative inhibition of cathepsin L; format: biochemical; settings: 50 μM; substrate Z-Phe-Arg-AMC; pH 5.5
T2 construct: made in house; host or cells: E. coli
T2 sequence (P07711 114-333): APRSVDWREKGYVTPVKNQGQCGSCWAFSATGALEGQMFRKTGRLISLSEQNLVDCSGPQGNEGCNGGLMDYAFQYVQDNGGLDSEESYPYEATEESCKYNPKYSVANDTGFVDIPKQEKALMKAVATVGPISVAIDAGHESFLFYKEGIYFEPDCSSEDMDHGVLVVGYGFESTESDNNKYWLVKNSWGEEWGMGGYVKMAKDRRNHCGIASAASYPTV
From the text: Relative inhibition is expressed as a percentage of the decrease in reaction velocity in the presence of an inhibitor, in comparison to the reaction velocity in the absence of an inhibitor. For that purpose, the specific fluorogenic substrates Z-Arg-Arg-7-amido-4-methylcoumarin (Z-Arg-Arg-AMC) and 2-aminobenzoyl (Abz)-Gly-Ile-Val-Arg-Ala-Lys-(Dnp)-OH were used for cathepsin B endopeptidase and exopeptidase activities, respectively, and Z-Phe-Arg-AMC was used for cathepsin L and V activities.
Human recombinant cathepsin B was expressed in E. coli, recombinant cathepsin V was expressed in Pichia pastoris, and human recombinant cathepsin L was expressed in E. coli, as reported. − For the determination of cathepsin B endopeptidase and exopeptidase activities, 100 mM phosphate buffer (pH 6.0) and 60 mM acetate buffer (pH 5.0) were used, respectively, and for the determination of cathepsin V and L activities, 100 mM acetate buffer (pH 5.5) was used. All buffers contained 0.1% PEG 8000 (Sigma-Aldrich, St. Louis, MO), 5 mM cysteine, and 1.5 mM EDTA. Prior to the assay, the enzymes were activated in the assay buffer for 5 min at 37 °C.
To determine the effect of inhibitors on enzyme activity, the following substrates were used: Z-Arg-Arg-AMC (final concentration 5 μM, Z-RR-AMC; Bachem, Bubendorf, Switzerland) for cathepsin B endopeptidase activity, Abz-Gly-Ile-Val-Arg-Ala-Lys-(Dnp)-OH (final concentration 1 μM, Abz-GIVRAK-(Dnp)-OH; Bachem) for cathepsin B exopeptidase activity, and Z-Phe-Arg-AMC (final concentration 2 μM, Z-FR-AMC; Bachem) for cathepsin V and L activity. The substrate ([…]) at a final concentration and inhibitor ([…]) at a concentration of 50 μM were added to the wells of a black microplate. The reaction was then initiated by adding 90 μL of activated enzyme (final concentrations: 5 nM cathepsin B for its endopeptidase activity, 0.5 nM cathepsin B for its exopeptidase activity, 2.5 ng/mL for cathepsin V, and 0.02 nM for cathepsin L) in the assay buffer. The formation of fluorescent degradation products during the reaction was continuously monitored at 460 ± 10 nm with excitation at 380 ± 20 nm for Z-Arg-Arg-AMC and Z-Phe-Arg-AMC and at 420 ± 10 nm with excitation at 320 ± 20 nm for Abz-Gly-Ile-Val-Arg-Ala-Lys(Dnp)-OH at 37 °C on a Tecan Infinite M1000 (Mannedorf, Switzerland) spectrofluorometer. All assay mixtures contained 5% (v/v) DMSO. To prevent false-positive inhibition due to the formation of compound aggregates, 0.01% Triton X-100 was used. All measurements were performed in triplicate and repeated twice. The relative inhibition was calculated using the following equation: relative inhibition (%) = 100(1 – v i/v o), where v i and v o designate the reaction velocities in the presence and absence of inhibitor, respectively.

N#Cc1ccccc1.[C-]#[O+].[C-]#[O+].[C-]#[O+].[O-]n1ccccc1=S.[Re+] [complex 4, fac-[Re(CO)3(pth)(benzonitrile)]]
bidentate pyrithione ligand coordination to rhenium(I) ([1]; 48 h monitoring period, light-exclusion): remained coordinated
time for complete replacement of benzonitrile with a solvent molecule ([1]; light-exclusion conditions, 1H NMR): ≤ 1 h
unbound complex in low molecular mass fraction [2]: ~10%
IC50 (Colo320 cells): 10.5 ± 0.85 µM
relative inhibition cathepsin L (cathepsin L): 5.0 ± 4.8%
